Measured values from patent US20230321053A1, “(1R,3S)-3-((5-CYANO-4-PHENYLTHIAZOL-2-YL)CARBAMOYL)CYCLOPENTANE-1-CARBOXYLIC ACID AND DERIVATIVES THEREOF FOR USE IN THE TREATMENT OF AIRWAY DISEASES” (PALOBIOFARMA, S.L., priority 2020, published 2023).

What was measured:
Brown Norway rats = conditions: orally administered, antigen induced; cited from earlier work
TNFalpha = conditions: rat; cited from earlier work
[1] = tested on: chronic obstructive pulmonary disease; conditions: 16-week trial; cited from earlier work
COPD patients [2] = conditions: baseline sputum eosinophils ≥3%; cited from earlier work
[3] = tested on: patients with mild-to-moderate persistent atopic asthma; assay: Peripheral blood eosinophil count, phase II placebo-controlled study; type: in vivo, human; conditions: 10 mg once daily
From the text: Eosinophil count. Peripheral blood eosinophil counts were obtained from standard complete blood counts done at every centre participating in the study. For example, by using standardized methods on a Beckman Coulter LH series analyzer (Beckman Coulter Ltd, Brea, CA, USA), Negewo, N. A. et al, Peripheral blood eosinophils: a surrogate marker for airway eosinophilia in stable COPD, Int J Chron Obstruct Pulmon Dis. 2016; 11: 1495-1504).
(§1) Eosinophils in S.I units (10^9/L) will be converted in cel/µL with the conversion factor 1 × 10^9/L =1000 cel/µL. The primary efficacy analysis on Per Protocol Population was stratified into 2 subgroups based on Eosinophils (cel/ µL) value at visit V1 from Hematology (Low < 300 cel/ µL, and High >=300 cel/ µL). Trough FEV1 on day 16 (+4-day leeway) was summarized by treatment arm and Eosinophils value at visit V1. A mixed model with FEV1 measurements on day 16 (23 h 15 min and 23 h 45 min post-dose), containing treatment arm and Eosinophils strata as fixed effects, site as random effect with baseline FEV1 on visit V5 as a covariate was fitted.
(§2) The present trial is an exploratory study aiming at evaluating the safety, tolerability, and efficacy of a 15-day, once daily administration of 10 mg Compound (I) in subjects with persistent mild-to-moderate atopic asthma. In terms of exploratory efficacy, the primary purpose of this study is to determine whether Compound (I) compared to placebo, improves the FEV1, as well as to provide comparative safety data from this population of asthmatics. Measurements made in this study will also be used to establish whether this treatment improves other variables related to asthma control and lung function.
(§3) A phase II, double-blind, randomized, parallel-group, placebo-controlled multi-center study to investigate the effect of the adenosine A1 receptor antagonist Compound (I) on forced expiratory volume in 1 second (FEV1) in patients with mild-to-moderate persistent atopic asthma.
The study comprises: (i) a minimum of 5-days screening period, during which the subject’s clinical stability and overall eligibility for the study will be assessed; (ii) a weaning phase where a stepwise tapering of the asthma medication will be done upon 7-day periods; (iii) the randomized, parallel-arm treatment period; and (iv) an end-of-study follow-up visit. The asthma medication weaning period comprises three possible visit pathways in order to adjust for each subject’s asthma therapy on study entry. The study comprises a primary analysis population of 58 stable asthmatic subjects managed as described for the objectives, who meet all inclusion criteria and no exclusion criteria and complete a full, valid data set for the primary variable.

[4] = tested on: patients with mild-to-moderate persistent atopic asthma; assay: Trough FEV1 (spirometry), phase II placebo-controlled study; type: in vivo, human; conditions: for FEV1 LS means difference vs Placebo, Eosinophils category High, Estimate (SE): eosinophils High at V1, p 0.0164; for FEV1 LS means difference vs Placebo, Eosinophils category Low, Estimate (SE): eosinophils Low at V1, p 0.7778
Method: as §1
(§4) FEV1. Briefly. Spirometry measurements will be performed using spirometry equipment which meets or exceeds the minimal performance recommendations of the ATS/ERS standards (Miller M. R et al, Standardisation of spirometry, Eur Respir J 2005; 26: 319-338). Calibration and quality control should be performed before the site initiation: • a. A 3L syringe will be used to verify spirometer accuracy. • b. The accuracy of the syringe should be certified within the last 12 months and should have an accuracy of ± 15 ml. • c. Before use, the syringe should be maintained at the same temperature as the spirometer to ensure volume stability. • d. For volume-type spirometers, a calibration and leak check must be performed before each testing session according to the manufacturer’s guidelines. A calibration report stored in the site’s source documents is required to confirm the adherence to guidelines. Example of spirometry equipment used in the trial: Jaeger and ERT Spirosphere.
as §2, §3
(§5) Secondary objectives include determinations of FEV1 area under the curve (AUC), evaluations on pre- and post- bronchodilator FEV1, and patient reported outcomes (PROs) including Asthma Control Questionnaire-7 (ACQ-7) and Standardized Asthma Quality of Life Questionnaire (AQLQ(S)).
A mixed model with FEV1 measurements on day 16 (23 h 15 min and 23h 45 min post-dose), containing treatment arm as a fixed effect, site as random effect with baseline FEV1 on visit V5 as a covariate was fitted. The treatment effect was larger for Compound (l) group compared to placebo, increasing the FEV1 on 180 mL (p= 0.0816).
FEV1: forced expiratory volume in 1 second; SD: standard deviation; SE: standard error; min: minimum; max: maximum; LS: least squares; Cl: confidence interval. Trough FEV1 on day 16 (+4-day leeway), defined as the average of the FEV1 measurements taken at 23 h15 min and 23 h45 min post-dose.

[5] = tested on: patients with mild-to-moderate persistent atopic asthma; assay: FEV1 AUC30min-23h30min post-dose, phase II study; type: in vivo, human
From the text: as §4, §5

[6] = tested on: patients with mild-to-moderate persistent atopic asthma; assay: Asthma Control Questionnaire-7 (ACQ-7), phase II study; type: in vivo, human; conditions: mixed model, days 8 and 15, effect: treatment; p 0.0430
From the text: as §5
Table 7 and FIG. 5. Similar trend was observed when comparing Visit and Study Arm* Visit as covariate.

[7] = tested on: allergic/atopic asthmatics; assay: Safety / adverse events, phase II study; type: in vivo, human; conditions: safety population
Method: as §2
Of the 107 subjects who were screened, 63 (58.9%) met eligibility criteria and were randomized. Of the 63 patients who were randomized, 63 (100%) completed the study (32 and 31 in the Compound (l) and placebo groups, respectively). There were not adverse events for discontinuation. The safety population included 63 (placebo: n=31 and Compound (l): n=32). Results are based on the per protocol population (placebo: n= 27 and Compound (l): n= 31).
The data highlight the potential of the adenosine A1 receptor antagonist Compound (l) as a promising oral asthma therapy. The safety set included all randomized patients who received at least one dose of any study drug.

COPD patients [8] = conditions: raised baseline eosinophils; cited from earlier work
[9] = change from baseline, 10 mg, N=31

**Q.** What does the source list for `O=C(Nc1c(Cl)cncc1Cl)c1ccc(OC(F)F)c(OCC2CC2)c1` [Roflumilast]?
**A.** bronchoalveolar lavage fluid (BALF) eosinophilia (Brown Norway rats): inhibited; LPS-induced circulating TNFalpha (TNFalpha): abrogated; blood eosinophils [1]: not in the blood eosinophils; eosinophils in sputum and bronchial biopsy samples [1]: significant reduction

**Q.** With “benralizumab: humanized, afucosylated, monoclonal antibody targeting the IL5-receptor α-chain” as the molecule, how does the “improvements in exacerbation rates, SGRQ-C, CRQ-SAS scores and FEV1” value (COPD patients [2]) read?
**A.** Its value is “not statistically significant”.

**Q.** Which results are given for `N#Cc1sc(NC(=O)[C@H]2CC[C@@H](C(=O)O)C2)nc1-c1ccccc1` [Compound (I), (1R,3S)-3-((5-cyano-4-phenylthiazol-2-yl)carbamoyl)cyclopentane-1-carboxylic acid]?
**A.** Eosinophilic Count on Visit V7 (day 15), Mean ([3]; 15 days, per protocol population, N=30, baseline mean 392.9): 218 cel/ µL; Eosinophilic Count on Visit V7 (day 15), Median ([3]; 15 days, per protocol population, N=30, baseline median 370.0): 150.0 cel/ µL; Eosinophilic Count, Absolute Change from Baseline, Mean difference vs Placebo (90% Cl) ([3]; day 15): -233.9 (-Inf, -174.6) cel/ µL; Eosinophilic Count, Relative Change from Baseline, Mean difference vs Placebo (90% Cl) ([3]; day 15, p-value <0.0001): -68.0 (-Inf, -51.95); Eosinophilic Count, Absolute Change from Baseline, Mean ([3]; day 15 vs visit V5): -184.7 cel/ µL; Eosinophilic Count, Absolute Change from Baseline, Median ([3]; day 15 vs visit V5): -195.0 cel/ µL; Eosinophilic Count, Relative Change from Baseline, Mean ([3]; day 15 vs visit V5): -46.8; Eosinophilic Count, Relative Change from Baseline, Median ([3]; day 15 vs visit V5): -64.9; increase of trough FEV1 [4]: 110 to 200 mL; Trough FEV1 day 16 (+4-day leeway), LS mean ([4]; 10 mg once daily 15 days, N=31, baseline mean 2.7): 3.1 L; Trough FEV1 day 16 (+4-day leeway), LS mean difference vs. Placebo ([4]; 10 mg once daily 15 days, p 0.0816): 0.18 L; FEV1 LS means difference vs Placebo, Eosinophils category High, Estimate (SE) [4]: 0.38 L; FEV1 LS means difference vs Placebo, Eosinophils category High, Estimate (SE) ([4]; listed as COMPOUND (I)): 0.38 (0.15) L; FEV1 LS means difference vs Placebo, Eosinophils category Low, Estimate (SE) [4]: 0.04 L; FEV1 LS means difference vs Placebo, Eosinophils category Low, Estimate (SE) ([4]; listed as COMPOUND (I)): 0.04 (0.15) L; FEV1 LS means differences in study arm vs Placebo, Estimate (SE) ([4]; mixed model with eosinophils strata, p 0.0596): 0.21 (0.11) L; FEV1 LS means, Estimate (SE), Eosinophils category High ([4]; mixed model, trough FEV1 day 16, eosinophils High at visit V1, per protocol): 3.06 (0.11) L; FEV1 LS means, Estimate (SE), Eosinophils category Low ([4]; mixed model, trough FEV1 day 16, eosinophils Low at visit V1, per protocol): 3.04 (0.12) L; treatment effect, increase of FEV1 compared to placebo ([4]; trough FEV1 day 16, mixed model, p= 0.0816): 180 mL; FEV1 AUC30min-23h30min post-dose through days 15-to-16, Mean [5, 9]: 4.9; FEV1 AUC30min-23h30min post-dose through days 15-to-16, Median [5, 9]: 5.7; FEV1 AUC30min-23h30min post-dose through days 15-to-16, Mean difference vs Placebo (90% Cl) ([5]; p 0.0435): 3.6 (0.96); ACQ-7 overall score, Mean difference vs Placebo (90% Cl) [6]: -0.28; serious adverse events ([7]; 10 mg once daily 15 days): no serious AEs reported; severity of most adverse events ([7]; both groups): mild/moderate

B1: mepolizumab: anti-IL-5 monoclonal antibody (antibody, chains of the INN, looked up, V domains shown)
VH: QVTLRESGPALVKPTQTLTLTCTVSGFSLTSYSVHWVRQPPGKGLEWLGVIWASGGTDYNSALMSRLSISKDTSRNQVVLTMTNMDPVDTATYYCARDPPSSLLRLDYWGRGTPVTVSS
VL: DIVMTQSPDSLAVSLGERATINCKSSQSLLNSGNQKNYLAWYQQKPGQPPKLLIYGASTRESGVPDRFSGSGSGTDFTLTISSLQAEDVAVYYCQNVHSFPFTFGGGTKLEIK
**Q.** For B1, which “sputum and blood eosinophil counts compared with placebo” value (COPD patients [8]) is on record?
**A.** The value was “significantly reduced”.
